Data on one compound can be found in paper PMC12186697, “HypoxyStat, a small-molecule form of hypoxia therapy that increases oxygen-hemoglobin affinity” (Cell, 2025).

The test system of data set [1] is Hb. In words: Hb occupancy estimate from blood levels of compound and Hb. The format is in vivo. To be noted: day 12, C57BL/6 mice. On the procedure: (§1) We conducted a PK/PD study to determine the optimal dosing strategy for HypoxyStat in a chronic setting. First we administered a single 10 mg/kg oral dose of HypoxyStat to adult C57BL/6 mice and monitored its concentration in blood and plasma over a 10-day period (Figure 3A, left). Next, we administered HypoxyStat at doses of 20, 60, 200, and 600 mg/kg via oral gavage three times per week for 12 days. […] Based on blood levels of HypoxyStat and Hb measured on day 12, we estimated Hb occupancy to be 29.3% at 200 mg/kg and 41.4% at 600 mg/kg (Figure S1).[27]
Figure S1. Hemoglobin occupancy estimates, related to Figure 1
LC/MS/MS measurement of steady-state whole-blood HypoxyStat concentrations after day 12 administration in C57BL/6 mice (200 or 600 mg/kg PO, […]
week in 0.5% HPMC), N = 10 per group.
(A) Oral administration of HypoxyStat every other day (vehicle = 0.5% HPMC).
(B) LC/MS/MS measurement of steady-state mean whole-blood HypoxyStat concentrations after day 12 administration in C57BL/6 mice.
(C) Hb concentration after analogous treatment.
(D) Hb occupancy was calculated by dividing the HypoxyStat concentration in blood by the Hb concentration in blood on day 12.

Data set [2] is described as follows: Mouse oral pharmacokinetics (blood and plasma, LC-MS/MS). The class given is in vivo, C57BL/6 mice. On the procedure:
as §1
Mouse plasma and whole blood samples were processed as outlined below. An equal volume of 3% aqueous formic acid in water was added to whole blood and plasma samples which were then vortexed at 600 rpm for 60 minutes at room temperature. Internal standard solution (acetonitrile containing 200 nM chrysin) was then added to the samples. They were then vortexed and centrifuged for 5 minutes at 4100 rpm and 4°C. Diluted extracts were injected into a Sciex 5500 LC-MS/MS system operated in positive mode for analysis. A Waters Acquity BEH C18 (50 x 2 mm, […]) UPLC column was used with Mobile Phases A (water:acetonitrile:formic acid [95:5:0.1, v:v:v]) and B (methanol:acetonitrile:formic acid [50:50:0.1, v:v:v]) to separate analytes. Multiple reaction monitoring transitions of 368/230 and 255/153 were used for HypoxyStat and chrysin, respectively.

Data set [3] is described as follows: Stability of dosing suspension. The format is physicochemical. To be noted: suspension in 0.5% HPMC, stored at 4 °C. On the procedure:
Mice were administered HypoxyStat at 600 mg/kg every other day or 400mg/kg daily via oral gavage. For the disease prevention experiments, KO mice that underwent daily dosing were dosed starting ~P30 for 1 week of 200mg/kg daily, followed by 400mg/kg daily to allow for gradual dose escalation. For the reversal study, KO mice were dosed once with 200mg/kg on postnatal day ~P55, followed by 400mg/kg daily. HypoxyStat was formulated as a suspension at 60 mg/mL, 40mg/ml or 80mg/ml depending on dose in 0.5%HPMC and stored at 4 °C. The formulation was determined to be stable for at least 8 weeks. Animal body weight was taken at time of dosing to determine appropriate dosing volume (10 mL/kg for every other day dosing, 5ml/kg for daily dosing). Vehicle treated mice were administered the same volume of 0.5% HPMC.

Data set [4] concerns hypoxia transcriptional response (HIF). In words: Hypoxia biomarkers in mice (plasma Epo, hematocrit, blood glucose, hypoxia-induced brain transcripts). The format is in vivo, mouse. The method, then:
Plasma Epo measurements were performed with R&D Systems Epo Elisa Kit (MEP00B) according to manufacturer directions. Briefly, whole blood was collected with anticoagulant before centrifugation within 30 minutes of collection and stored at −80C until day of analysis. On the day of Epo assay, samples were thawed and diluted 2-fold and incubated in the assay plate for two hours. Each well was washed five times before the addition of Epo Conjugate followed by a two-hour incubation. Each well was washed five times before adding Substrate Solution to develop for 30 minutes before addition of Stop Solution. The optical density of each well was determined at 450nm and correction wavelength of 540/570.
(§2) Hematocrit was determined with an iStat VetScan 1 with Zoetis Chem 8+ cartridges. Blood glucose measurements were performed using OneTouch UltraPlus glucometer. Whole blood chemistry measurements were performed on a VetScan HM5.
Half of the hindbrain was collected at necropsy and immediately flash frozen. For RNA extraction, a stainless-steel bead (Qiagen) and 1 mL TRIzol™ Reagent (Thermo Fisher Scientific) were added to the frozen samples, which were rapidly lysed using a tissue lyser (Qiagen) for five 1-minute cycles of 30 Hz frequency. Subsequent steps for RNA isolation were identical as previously described.[9] Reverse transcription was performed using the QuantiTect Reverse Transcription Kit (Qiagen) instructions. Briefly, gDNA was wiped out from samples containing 1 μg RNA. gDNA-free RNA samples were reverse transcribed following Qiagen’s instructions. […] For each set of triplicates, an average CT value was obtained, and the difference in average CT between the target gene and β-actin was calculated (ΔCT). Next, the difference in ΔCT value between each sample and the average of the normoxia samples was calculated (ΔΔCT). Relative expression of each gene was determined by calculating 2^−ΔΔCT.

Data set [5] in a line: Safety studies in mice at optimized dose. The format is in vivo. To be noted: optimized dose (400 mg/kg daily). On the procedure:
Additionally, we used the Reaction Bio InVEST panel to test 25+ potential off-targets that have been identified by a consortium of pharmaceutical companies as high-yield candidates.
as §2

What is called Cmax is the maximum level reached in the sampled fluid or tissue. One may read the half-life as how long it takes for the measured level to halve. For the compound `O=Cc1ccccc1C(=O)N1CCCC[C@H]1COc1cccc(O)c1C=O` [HypoxyStat], the Hb occupancy in data set [1] (200 mg/kg PO 3 times per week) is given as 29.3%; in data set [1] (600 mg/kg PO 3 times per week), 41.4%. In data set [2] (20, 60, 200 and 600 mg/kg oral gavage three times per week for 12 days), the “concentration within red blood cells” value is on record as “dose-dependent increase”. In data set [2] (C57BL/6, in vivo, oral, 10 mg/kg, Figure 2A, mouse), this compound had a Cmax of 1590 nM. Besides, the half-life in data set [2] (mouse, in vivo, 10 mg/kg oral gavage, C57BL/6 mice, read-out: effective half-life (Mouse PO half-life) (converted)) is 5.04 days. Moreover, the blood plasma ratio at 3 days in data set [2] (mouse, whole blood and plasma, 10 mg/kg oral gavage, C57BL/6 mice, 3 days post dosing) came out at 396. Further, in data set [3], the stability of formulation result is “at least 8 weeks”. Moreover, in data set [4] (400 mg/kg daily, 48 h, compared with inhaled hypoxia (11% O2)), the “circulating Epo and 5 hypoxia-induced transcripts in hindbrain” value is on record as “induced to an equivalent or greater degree”. Moreover, the “Epo and hematocrit with increasing dose” value in data set [4] (oral gavage 3 times per week for 12 days, up to 600 mg/kg) was “substantial increases in both Epo and hematocrit”. Also, the “classical safety parameters (body weight, organ weights, complete blood count, clinical chemistries)” value in data set [5] is listed as “not adversely affected”.
